Measurements taken from PMC7587356, “High-Throughput Screening for Inhibitors of the SARS-CoV-2 Protease Using a FRET-Biosensor” (Molecules, 2020).
Where a name gives a salt, the structure may show the parent alone. Read-outs that look alike come from different tables or passages of the source.

Molecular target: SARS-CoV-2 3CLpro (Severe acute respiratory syndrome coronavirus 2, UniProt P0DTD1)
Assay: biochemical
Assay type: biochemical
Design: Replicate_1 / Replicate_2 / mean / mean (LOPAC_screen_w_protease): unit not given here
Settings: for inhibition at 5 µM: 4 h
[1] = LOPAC1280 primary screen with protease, 5 µM compound, replicate 1, read-out: Replicate_1 (LOPAC_screen_w_protease)
[2] = LOPAC1280 primary screen with protease, 5 µM compound, replicate 2, read-out: Replicate_2 (LOPAC_screen_w_protease)
[3] = LOPAC1280 primary screen with protease, 5 µM compound, mean of two replicates
[4] = sheet LOPAC_screen_w_protease, LOPAC1280 at 5 µM, mean of two replicates
[5] = sheet LOPAC_screen_w_protease, LOPAC1280 at 5 µM, replicate 1
[6] = sheet LOPAC_screen_w_protease, LOPAC1280 at 5 µM, replicate 2
[7] = LOPAC1280 primary screen with protease, 5 µM compound, mean of the two replicates
[8] = LOPAC1280 primary screen with protease, 5 µM compound, replicate 1
[9] = LOPAC1280 primary screen with protease, 5 µM compound, replicate 2
[10] = sheet LOPAC_screen_w_protease, primary screen with protease, 5 µM, mean of two replicates, read-out: mean
[11] = sheet LOPAC_screen_w_protease, primary screen with protease, 5 µM, replicate 1, read-out: Replicate_1
[12] = sheet LOPAC_screen_w_protease, primary screen with protease, 5 µM, replicate 2, read-out: Replicate_2
[13] = sheet LOPAC_screen_w_protease, LOPAC1280 primary screen at 5 µM, with protease, replicate 1
[14] = sheet LOPAC_screen_w_protease, LOPAC1280 primary screen at 5 µM, with protease, replicate 2
[15] = sheet LOPAC_screen_w_protease, primary screen of LOPAC1280 at 5 µM with protease, mean of the two replicates
[16] = sheet LOPAC_screen_w_protease, primary screen of LOPAC1280 at 5 µM with protease, replicate 1
[17] = sheet LOPAC_screen_w_protease, primary screen of LOPAC1280 at 5 µM with protease, replicate 2
[18] = sheet LOPAC_screen_w_protease, LOPAC1280 primary screen at 5 µM, with protease, mean of the two replicates

Molecule: N[C@@H]1CON=C1O [D-Cycloserine]
- inhibition at 5 µM [1]: 2.63%
- inhibition at 5 µM [2]: 0.045%
- mean (LOPAC_screen_w_protease) [3]: 1.34

Molecule: C[C@H]1O[C@@H](n2cc(F)c(=O)[nH]c2=O)[C@H](O)[C@@H]1O [5-fluoro-5'-deoxyuridine]
- mean (sheet LOPAC_screen_w_protease, primary screen with protease, compound at 5 µM, mean of two replicates): 2.678
- Replicate_1 (sheet LOPAC_screen_w_protease, primary screen with protease, compound at 5 µM, replicate 1): 3.684
- Replicate_2 (sheet LOPAC_screen_w_protease, primary screen with protease, compound at 5 µM, replicate 2): 1.673

Molecule: COc1cc(C(O)C(=O)O)ccc1O (racemic) [(±)-Vanillylmandelic acid]
- mean [4]: 1.1
- Replicate_1 [5]: 2.648
- Replicate_2 [6]: -0.449

Molecule: OC(CN1CCN(c2cccc(Cl)c2)CC1)C(c1ccccc1)c1ccccc1 (centres unmarked) [BRL 15572]
- mean (LOPAC_screen_w_protease) [7]: 1.912
- Replicate_1 (LOPAC_screen_w_protease) [8]: 0.6201
- Replicate_2 (LOPAC_screen_w_protease) [9]: 3.204

Molecule: CCNC(=O)[C@H]1O[C@@H](n2cnc3c(N)ncnc32)[C@H](O)[C@@H]1O [5'-N-Ethylcarboxamidoadenosine]
- mean (LOPAC_screen_w_protease) [7]: 1.81
- Replicate_1 (LOPAC_screen_w_protease) [8]: 1.565
- Replicate_2 (LOPAC_screen_w_protease) [9]: 2.055

Molecule: N[C@@H](Cc1c[nH]c2ccc(O)cc12)C(=O)O [5-Hydroxy-L-tryptophan]
- inhibition at 5 µM (sheet LOPAC_screen_w_protease, primary screen at 5 µM, mean of two replicates, read-out: mean (LOPAC screen with protease)): 14.5%
- inhibition at 5 µM (sheet LOPAC_screen_w_protease, primary screen at 5 µM, replicate 1, read-out: Replicate_1 (LOPAC screen with protease)): 16.3%
- inhibition at 5 µM (sheet LOPAC_screen_w_protease, primary screen at 5 µM, replicate 2, read-out: Replicate_2 (LOPAC screen with protease)): 12.8%

Molecule: CC(C)(C)NCC(O)c1ccc(O)c(CO)c1.CC(C)(C)NCC(O)c1ccc(O)c(CO)c1.O=S(=O)(O)O (centres unmarked) [Albuterol hemisulfate]
- mean (LOPAC_screen_w_protease) [7]: 2.078
- Replicate_1 (LOPAC_screen_w_protease) [8]: 2.563
- Replicate_2 (LOPAC_screen_w_protease) [9]: 1.593

Molecule: (+)-Catechin Hydrate
- mean (LOPAC screen with protease) (sheet LOPAC_screen_w_protease, primary screen at 5 µM, mean of two replicates): 22.7149
- Replicate_1 (LOPAC screen with protease) (sheet LOPAC_screen_w_protease, primary screen at 5 µM, replicate 1): 22.57
- Replicate_2 (LOPAC screen with protease) (sheet LOPAC_screen_w_protease, primary screen at 5 µM, replicate 2): 22.8597

Molecule: COc1cc2c(CCNC(C)=O)c[nH]c2cc1Cl [6-Chloromelatonin]
- mean (LOPAC_screen_w_protease) [3]: 1.65
- Replicate_1 (LOPAC_screen_w_protease) [8]: 0.5069
- Replicate_2 (LOPAC_screen_w_protease) [9]: 2.794

Molecule: O=C[C@H](Cl)[C@@H](O)[C@H](O)[C@H](O)CO [2-Chloro-2-deoxy-D-glucose]
- mean (LOPAC_screen_w_protease) [7]: 1.752
- Replicate_1 (LOPAC_screen_w_protease) [8]: 1.144
- Replicate_2 (LOPAC_screen_w_protease) [9]: 2.361

Molecule: C=CCc1ccccc1OCC(O)CNC(C)C (centres unmarked) [Alprenolol hydrochloride]
- inhibition at 5 µM [10]: 0.137%
- inhibition at 5 µM [11]: 0.164%
- inhibition at 5 µM [12]: 0.11%

Molecule: COC(=O)[C@H]1[C@H]2C[C@H]3c4[nH]c5ccccc5c4CCN3C[C@H]2CC[C@@H]1O [Rauwolscine hydrochloride]
- inhibition at 5 µM (sheet LOPAC_screen_w_protease, primary screen with protease, compound at 5 µM, mean of two replicates, read-out: mean): 3.1%
- inhibition at 5 µM (sheet LOPAC_screen_w_protease, primary screen with protease, compound at 5 µM, replicate 1, read-out: Replicate_1): 3.55%
- inhibition at 5 µM (sheet LOPAC_screen_w_protease, primary screen with protease, compound at 5 µM, replicate 2, read-out: Replicate_2): 2.65%

Molecule: CC(C)NCC(O)c1ccc(NS(C)(=O)=O)cc1.Cl (racemic) [(±)-Sotalol hydrochloride]
- mean (LOPAC_screen_w_protease) [3]: 1.4398
- Replicate_1 (LOPAC_screen_w_protease) [8]: 1.054
- Replicate_2 (LOPAC_screen_w_protease) [9]: 1.826

Molecule: NNCCc1ccccc1 [Phenelzine sulfate]
- inhibition at 5 µM (read-out: Replicate_1): 0.173%
- inhibition at 5 µM (read-out: Replicate_2): -1.72%
- inhibition at 5 µM (read-out: mean): -0.773%

Molecule: Cc1ccc([N+](=O)[O-])cc1S(=O)(=O)N(C)C [BRL 50481]
- mean (LOPAC_screen_w_protease) [3]: 1.647
- Replicate_1 (LOPAC_screen_w_protease) [8]: 1.025
- Replicate_2 (LOPAC_screen_w_protease) [9]: 2.268

Molecule: NNCc1cccc(O)c1 [3-Hydroxybenzylhydrazine dihydrochloride]
- inhibition at 5 µM [1]: 3.31%
- inhibition at 5 µM [2]: 0.839%
- mean (LOPAC_screen_w_protease) [7]: 2.074

Molecule: NC(=O)COc1c(F)cc(SCCNS(=O)(=O)c2ccccc2)cc1F
- mean (sheet LOPAC_screen_w_protease, LOPAC1280 primary screen at 5 µM, with protease, mean of two replicates): -1.413
- Replicate_1 [13]: -1.082
- Replicate_2 [14]: -1.744

Molecule: O=C1NCC2(CCN(CCc3ccccc3)CC2)O1 [Fenspiride hydrochloride]
- inhibition at 5 µM (sheet LOPAC_screen_w_protease, primary screen with protease, mean of two replicates, read-out: mean): 2.48%
- inhibition at 5 µM (sheet LOPAC_screen_w_protease, primary screen with protease, replicate 1, read-out: Replicate_1): 4.11%
- inhibition at 5 µM (sheet LOPAC_screen_w_protease, primary screen with protease, replicate 2, read-out: Replicate_2): 0.843%

Molecule: Cl.O=S(=O)(c1cccc2c(Cl)cccc12)N1CCCNCC1 [ML-9]
- Replicate_1: 1.4227
- Replicate_2: 4.79
- mean: 3.1064

Molecule: CC1=C(C(=O)O)N2C(=O)[C@@H](NC(=O)[C@H](N)c3ccccc3)[C@H]2SC1.O [Cephalexin hydrate]
- mean (LOPAC_screen_w_protease) [3]: 1.619
- Replicate_1 (LOPAC_screen_w_protease) [8]: 2.163
- Replicate_2 (LOPAC_screen_w_protease) [9]: 1.074

Molecule: CN[C@@H]1C[C@@H](c2ccc(Cl)c(Cl)c2)c2ccccc21 [Indatraline hydrochloride]
- inhibition at 5 µM [1]: 1.51%
- inhibition at 5 µM [2]: 2.53%
- mean (LOPAC_screen_w_protease) [7]: 2.022

Molecule: Ic1ccccc1CNC1C2CCN(CC2)C1C(c1ccccc1)c1ccccc1.O=C(O)C(=O)O [L-703,606 oxalate]
- mean [15]: 3.6584
- Replicate_1 [16]: 4.135
- Replicate_2 [17]: 3.181

Molecule: N/C(=N\C(=O)c1nc(Cl)c(N)nc1N)NCc1ccc(Cl)c(Cl)c1 [3',4'-Dichlorobenzamil]
- mean [15]: 4.038
- Replicate_1 [16]: 5.158
- Replicate_2 [17]: 2.918

Molecule: CN1CCCC1c1cccnc1.Cc1ccc(C(=O)OC(C(=O)O)C(OC(=O)c2ccc(C)cc2)C(=O)O)cc1 (stereo not drawn) [(+)-Nicotine (+)-di-p-toluoyl tartrate]
- Replicate_1 (LOPAC_screen_w_protease): 1.288
- Replicate_2 (LOPAC_screen_w_protease): 2.109
- mean (LOPAC_screen_w_protease): 1.698

Molecule: Oc1ccc2c3c1O[C@H]1[C@@H](O)CC[C@@]4(O)[C@@H](C2)N(CC2CCC2)CC[C@]314 [Nalbuphine hydrochloride]
- inhibition at 5 µM (read-out: Replicate_1): 4.1%
- inhibition at 5 µM (read-out: Replicate_2): 4.27%
- inhibition at 5 µM (read-out: mean): 4.19%

Molecule: COc1ccc2c(c1OC)C(=O)O[C@@H]2[C@H]1c2c(cc3c(c2OC)OCO3)CCN1C.Cl [Noscapine hydrchloride]
- mean (LOPAC_screen_w_protease) [7]: 1.752
- Replicate_1 (LOPAC_screen_w_protease) [8]: 0.9869

Molecule: O=C(O)c1ccccc1Nc1ccccc1 [N-Phenylanthranilic acid]
- inhibition at 5 µM [10]: 0.157%
- inhibition at 5 µM [11]: 0.635%
- inhibition at 5 µM [12]: -0.322%

Molecule: N[C@H](C(=O)O)c1cc(O)no1 (racemic) [(±)-Ibotenic acid]
- mean [18]: 0.7432
- Replicate_1 [13]: 1.025
- Replicate_2 [14]: 0.4611

Molecule: CNc1cc(NS(=O)(=O)c2ccc(N)cc2)nc(NC)n1.Cl.Cl [Ro 04-6790 dihydrochloride]
- mean [4]: 0.9819
- Replicate_1 [5]: -0.4861
- Replicate_2 [6]: 2.45

Molecule: O=C(O)/C=C\C(=O)O.O=C(O)/C=C\C(=O)O.c1ccc2nc(N3CCNCC3)ccc2c1 [Quipazine dimaleate]
- mean [18]: 0.5004
- Replicate_1 [13]: 0.6596
- Replicate_2 [14]: 0.3411

Molecule: O=C(O)CCCCCCCC(=O)O [Azelaic acid]
- inhibition at 5 µM (sheet LOPAC_screen_w_protease, LOPAC1280 primary screen at 5 µM, with protease, mean of the two replicates, read-out: mean): 0.767%
- inhibition at 5 µM (sheet LOPAC_screen_w_protease, LOPAC1280 primary screen at 5 µM, with protease, replicate 1, read-out: Replicate_1): 1.56%
- inhibition at 5 µM (sheet LOPAC_screen_w_protease, LOPAC1280 primary screen at 5 µM, with protease, replicate 2, read-out: Replicate_2): -0.0221%

Molecule: CC(=O)O[C@H]1C[C@@]2(C)[C@@H](C[C@@H](O)[C@H]3[C@@]4(C)CC[C@@H](O)[C@@H](C)[C@@H]4CC[C@@]32C)/C1=C(\CCC=C(C)C)C(=O)[O-].[Na+] [Fusidic acid sodium]
- mean (sheet LOPAC_screen_w_protease, primary screen with protease, mean of two replicates): 2.25
- Replicate_1 (sheet LOPAC_screen_w_protease, primary screen with protease, replicate 1): 4.338
- Replicate_2 (sheet LOPAC_screen_w_protease, primary screen with protease, replicate 2): 0.1614

Molecule: COc1ccccc1CNCCCCCCNCCCCCCCCNCCCCCCNCc1ccccc1OC.Cl.Cl.Cl.Cl [Methoctramine tetrahydrochloride]
- mean [15]: 4.069
- Replicate_1 [16]: 5.6561
- Replicate_2 [17]: 2.482

Molecule: CC(=O)O[C@]1(C(C)=O)CC[C@H]2[C@@H]3C=C(Cl)C4=CC(=O)[C@@H]5C[C@@H]5[C@]4(C)[C@H]3CC[C@@]21C [Cyproterone acetate]
- inhibition at 5 µM [10]: -0.427%
- inhibition at 5 µM [11]: 1.58%
- inhibition at 5 µM [12]: -2.43%

Molecule: CC(C)c1ccc2c(c1)c(SC(C)(C)C)c(CC(C)(C)C(=O)O)n2Cc1ccc(Cl)cc1 [MK-886]
- mean [15]: 3.5784
- Replicate_1 [16]: 4.4392
- Replicate_2 [17]: 2.7176
